{"source": "paper PMC5012889", "about": "“Cardiac action of the first G protein biased small molecule apelin agonist” (Biochemical Pharmacology, 2016)", "key": {"[1]": {"test": "Thermodynamic solubility (Cyprotex)", "assay_type": "physicochemical", "details": "pH 7.4, saline or isotonic, thermodynamic from solid, pH7.4, potassium salt", "protocol": "(§1) CMF-019 ((S)-3-[1-(1-Ethyl-propyl)-2-thiophen-2-ylmethyl-1H-benzoimidazole-5-carbonyl]-amino-5-methyl-hexanoic acid) has previously been prepared (compound number 107 from patent US20140094450, 2014) via a minor modification of the literature procedure (Fig. 2). […] Thermodynamic solubility (potassium salt) and an in vitro murine microsomal stability of CMF-019 were performed at Cyprotex (Macclesfield, UK)."}, "[2]": {"test": "Analysis of rat plasma samples by LC-MS/MS", "assay_type": "in vivo", "details": "approx. 10 min after last of three cumulative i.v. doses, heparinised samples, n = 6", "protocol": "Analysis of plasma samples was performed by Peakdale Molecular (Chapel-en-la-Frith, UK). End-point blood samples were taken from rats (n = 6) following completion of three cumulative doses of CMF-019 (as described before), approximately 10 min after the last intravenous administration. The blood was collected in heparin-coated vials and spun at low speed (2000 g, 5 min), the plasma supernatant was removed and frozen. Quantitative analysis was performed using LC-MS/MS with metaprolol as an internal standard and CMF-019 to quantify CMF-019 in the samples."}, "apelin receptor [3]": {"target": "T1, apelin receptor (Rattus norvegicus, UniProt Q9JHG3)", "T1 construct": "from tissue; host or cells: rat whole heart homogenate", "T1 sequence (Q9JHG3 1-377)": "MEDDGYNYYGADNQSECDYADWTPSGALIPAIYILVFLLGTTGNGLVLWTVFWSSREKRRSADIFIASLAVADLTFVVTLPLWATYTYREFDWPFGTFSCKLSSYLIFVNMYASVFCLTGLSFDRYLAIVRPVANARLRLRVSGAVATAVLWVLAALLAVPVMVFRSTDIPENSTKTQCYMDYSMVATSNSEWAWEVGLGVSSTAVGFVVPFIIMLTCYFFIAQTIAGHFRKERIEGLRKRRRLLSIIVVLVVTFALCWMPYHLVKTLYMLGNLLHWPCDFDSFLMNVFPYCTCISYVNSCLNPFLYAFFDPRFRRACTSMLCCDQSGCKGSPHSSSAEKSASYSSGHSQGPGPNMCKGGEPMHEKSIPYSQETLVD", "test": "Competition radioligand binding, rat whole heart homogenate", "quoted_text": "(§2) Initial binding assays were performed by Cerep (Celle L’Evescault, France) on Chinese Hamster Ovary (CHO-K1) cells expressing the human apelin receptor. Further experiments were performed on human homogenised left ventricle (HLV, 1.5 mg/ml) and rat and mouse whole heart homogenates to determine any species variability prior to in vivo experiments. […] Experiments were performed in triplicate and data analysed using GraphPad Prism 6 (GraphPad Software, Inc. La Jolla, USA). Binding affinities were calculated by the Cheng-Prusoff methodology using measured IC50 values."}, "apelin receptor [4]": {"target": "T2, apelin receptor (Mus musculus, UniProt Q9WV08)", "T2 construct": "from tissue; host or cells: mouse whole heart homogenate", "T2 sequence (Q9WV08 1-377)": "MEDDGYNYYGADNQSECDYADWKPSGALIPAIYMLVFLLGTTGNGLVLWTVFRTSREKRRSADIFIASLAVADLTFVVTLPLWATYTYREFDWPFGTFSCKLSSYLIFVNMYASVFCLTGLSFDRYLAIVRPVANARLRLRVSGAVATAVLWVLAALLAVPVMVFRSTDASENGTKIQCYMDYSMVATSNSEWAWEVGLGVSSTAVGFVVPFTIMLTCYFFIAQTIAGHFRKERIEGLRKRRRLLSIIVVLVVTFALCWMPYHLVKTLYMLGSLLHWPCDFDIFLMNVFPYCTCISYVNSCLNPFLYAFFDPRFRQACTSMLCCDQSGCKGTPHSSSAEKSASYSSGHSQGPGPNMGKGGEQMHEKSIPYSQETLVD", "test": "Competition radioligand binding, mouse whole heart homogenate", "quoted_text": "as §2"}, "apelin receptor [5]": {"target": "T3, apelin receptor (Homo sapiens, UniProt P35414)", "T3 sequence (P35414 1-380)": "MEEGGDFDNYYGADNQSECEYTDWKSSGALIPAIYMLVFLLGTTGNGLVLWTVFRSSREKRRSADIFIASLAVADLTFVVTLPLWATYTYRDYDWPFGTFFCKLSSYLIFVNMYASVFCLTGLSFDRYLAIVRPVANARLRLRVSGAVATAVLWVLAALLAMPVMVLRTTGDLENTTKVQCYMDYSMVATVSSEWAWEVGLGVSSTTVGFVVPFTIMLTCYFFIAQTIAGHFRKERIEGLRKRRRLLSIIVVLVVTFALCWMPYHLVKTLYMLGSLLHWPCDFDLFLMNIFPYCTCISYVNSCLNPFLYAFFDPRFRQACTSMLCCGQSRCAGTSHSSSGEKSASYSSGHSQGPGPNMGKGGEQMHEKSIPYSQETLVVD", "details": "compared to [Pyr1]apelin-13", "text": "Statistical significance was taken as 5%."}, "[6]": {"tested_on": "anaesthetised male Sprague–Dawley rats", "test": "Rat heart catheterisation (left ventricle pressure-volume catheter), intravenous injection", "assay_type": "in vivo", "details": "for increase in dP/dtMAX (cardiac contractility): cumulative bolus", "text": "Male Sprague-Dawley rats (273 ± 6 g; […] Temperature was monitored throughout the surgical procedure using a rectal probe. Prior to the start of surgery, it was ensured that pain reflexes had ceased by use of a hind-paw pinch test. The surgery was completed as previously described. In brief, the right external jugular vein was cannulated, flushed with heparin solution (2%, 0.9% saline, pH5, Macopharma) and the right common carotid artery located. The catheter (Millar Inc., SPR-869) was calibrated using the MPVS Ultra system (ADIstruments) before being inserted into the carotid and advanced to the left ventricle. Once a stable pressure-volume loop could be observed, the catheter was left in place for ten minutes. […] The effects on pressure and volume were measured and the heart rate monitored to determine and maintain a suitable depth of anaesthesia. […] Data were acquired using the MPVS Ultra system (ADIstruments) and analysed using LabChart 8 (ADIstruments). Values for the maximal change in left ventricular systolic pressure (LVSP), stroke volume, cardiac output, contractility ([…] lusitropy ([…]) from baseline were calculated from the raw data and compared. Following completion of the measurements the animal was euthanised by exsanguination under high flow isoflurane."}, "[7]": {"test": "In vitro murine microsomal stability (Cyprotex)", "assay_type": "in vitro ADME", "details": "mouse, murine microsomes", "protocol": "as §1"}, "apelin receptor [8]": {"target": "T3, apelin receptor", "test": "Bias calculations between pathways (ΔΔLogR, bias factors)", "details": "compared to [Pyr1]apelin-13", "quoted_text": "β-Arrestin recruitment, β-arrestin mediated internalisation and cAMP assays were performed according to the manufacturer’s instructions (DiscoverX®, Fremont, CA) and as described previously [4].\nAll data are expressed as mean ± SEM values. Binding and cell-based experiments were performed in triplicate. For cell based assays, n-values are given as the number of replicates/number of experiments."}, "native apelin receptor": {"target": "T4, native apelin receptor (Homo sapiens, UniProt P35414)", "T4 sequence (P35414 1-380)": "T3 sequence (P35414 1-380)", "test": "Competition radioligand binding, human left ventricle homogenate", "quoted_text": "as §2"}, "apelin receptor [9]": {"target": "T3, apelin receptor", "quoted_text": "as §2"}, "[10]": {"parameters": "method as in earlier work", "details": "saline at room temperature; cited from earlier work"}, "[11]": {"details": "500 nmol i.v., anaesthetised rats"}, "[12]": {"details": "5000 nmol i.v., anaesthetised rats"}}, "note": "pKi: −log10 of the molar value. Entries after “also recorded” stand apart in the source; their conditions may differ. Counter-ions that a name gives are not always drawn. Like-named read-outs stand apart in the source and are kept apart here."}
{"smiles": "CCC(CC)n1c(Cc2cccs2)nc2cc(C(=O)N[C@H](CC(=O)O)CC(C)C)ccc21", "note": "[CMF-019 (potassium salt)]", "values": [{"measurement": "solubility", "setting": "[1]", "value": 2090, "unit": "µg/mL"}, {"measurement": "mean plasma concentration", "setting": "[2]", "value": "25.4 ± 2.5", "unit": "µM"}]}
{"smiles": "CCC(CC)n1c(Cc2cccs2)nc2cc(C(=O)N[C@H](CC(=O)O)CC(C)C)ccc21", "note": "[CMF-019, (S)-3-[1-(1-Ethyl-propyl)-2-thiophen-2-ylmethyl-1H-benzoimidazole-5-carbonyl]-amino-5-methyl-hexanoic acid]", "values": [{"measurement": "pKi", "setting": "apelin receptor [3]", "value": 8.49}, {"measurement": "pKi", "setting": "apelin receptor [4]", "value": 8.71}, {"measurement": "relative effectiveness (RE)", "setting": "apelin receptor [5]; cAMP", "value": 4.19}, {"measurement": "ΔLogR", "setting": "apelin receptor [5]; cAMP", "value": "0.62 ± 0.16"}, {"measurement": "relative effectiveness (RE)", "setting": "apelin receptor [5]; internalisation", "value": "7.19 × 10^−4"}, {"measurement": "ΔLogR", "setting": "apelin receptor [5]; internalisation", "value": "−3.14 ± 0.19"}, {"measurement": "relative effectiveness (RE)", "setting": "apelin receptor [5]; β-arrestin", "value": 0.01}, {"measurement": "ΔLogR", "setting": "apelin receptor [5]; β-arrestin", "value": "−1.98 ± 0.18"}, {"measurement": "increase in cardiac output", "setting": "[6]; [11]", "value": "1210 ± 170", "unit": "RVU/min"}, {"measurement": "increase in stroke volume", "setting": "[6]; [11]", "value": "2.62 ± 0.31", "unit": "RVU"}, {"measurement": "increase in dP/dtMAX (cardiac contractility)", "setting": "[6]; [11]", "value": "606 ± 112", "unit": "mmHg/s"}, {"measurement": "increase in LVSP", "setting": "[6]; [12]", "value": "6.22 ± 1.98", "unit": "mmHg"}, {"measurement": "increase in dP/dtMAX (cardiac contractility)", "setting": "[6]; [12]", "value": "833 ± 152", "unit": "mmHg/s"}, {"measurement": "adverse effects", "setting": "[6]; any of the concentrations administered (50–5000 nmol i.v.)", "value": "No adverse effects were observed"}, {"measurement": "effect on dP/dtMIN (lusitropy)", "setting": "[6]; i.v., anaesthetised rats", "value": "Neither [Pyr^1]apelin-13 nor CMF-019 altered the dP/dtMIN; also recorded: did not alter"}, {"measurement": "effect on heart rate", "setting": "[6]; i.v., anaesthetised rats", "value": "without a change in heart rate"}, {"measurement": "half-life", "setting": "[7]", "value": 38, "unit": "min"}, {"measurement": "mean plasma concentration", "setting": "[2]", "value": "~25", "unit": "µM"}, {"measurement": "bias factor (BF)", "setting": "apelin receptor [8]; cAMP (Gαi) over internalisation", "value": 5828}, {"measurement": "bias factor (BF)", "setting": "apelin receptor [8]; cAMP (Gαi) over β-arrestin", "value": 398}, {"measurement": "ΔΔLogR", "setting": "apelin receptor [8]; cAMP over internalisation", "value": "3.77 ± 0.25"}, {"measurement": "ΔΔLogR", "setting": "apelin receptor [8]; cAMP over β-arrestin", "value": "2.60 ± 0.24"}, {"measurement": "ΔΔLogR", "setting": "apelin receptor [8]; β-arrestin over internalisation", "value": "1.17 ± 0.26"}, {"measurement": "pKi", "setting": "native apelin receptor", "value": 8.58}, {"measurement": "pKi", "setting": "apelin receptor [9]", "value": 7.61}]}
{"smiles": "CC1=CC(=O)C(C2CCCCC2)=C/C1=N\\OS(=O)(=O)c1ccccc1", "note": "[ML233]", "values": [{"measurement": "solubility in saline", "setting": "[10]", "value": "low solubility"}]}
